Measured values as given in US12427142B2, “Combination comprising alpelisib and 6-(2,4-dichlorophenyl)-5-[4-[(3S)-1-(3-fluoropropyl)pyrrolidin-3-yl[oxyphenyl]-8,9-dihydro-7H-benzo[7]annulene-2-carboxylic acid” (Sanofi, priority 2020, dated 2025).
Like-named read-outs stand apart in the source and are kept apart here.

How the values were obtained:
[1] = tested on: MCF7-Y537S human breast cancer cell line xenograft; settings: experiment 1, compound (1) 20 mg/kg BID, alpelisib 25 mg/kg QD; for Tumor volume changes from baseline, Median: PO; for Median % of regressions on day 22 / ΔT/ΔC in % at day 22 / Regressions Complete / Regressions Partial: PO days 0 to 22; for Regressions Complete / Regressions Partial: animals/group; for Anti-tumor effect on tumor growth (in words) / Biological Interpretation: day 22
Procedure: In the present study, the anti-tumor efficacy of 6-(2,4-dichlorophenyl)-5-[4-[(3S)-1-(3-fluoropropyl)pyrrolidin-3-yl]oxyphenyl]-8,9-dihydro-7H-benzo[7]annulene-2-carboxylic acid (“compound (1)”), combined with alpha-specific phosphoinositide 3-kinase (PI3K) inhibitor alpelisib, was investigated after 22 day treatment against a subcutaneous MCF7-Y537S human breast cancer cell line xenograft in female nude mice.
The treated groups included compound (1) at 20 mg/kg alone, alpelisib at 25 mg/kg alone, and the combination of compound (1) and alpelisib at the same dose and regime.
Compound (1) was orally dosed twice a day (BID) and alpelisib was orally dosed once a day (QD) for 22 days. Anti-tumor efficacy was evaluated by tumor volume measurement.
Female BALB/c nude mice were obtained from Shanghai Sino-British SIPPR/BK Laboratory Animal Co., LTD (Shanghai, CHINA). Animals were allowed to acclimate for at least four days before the study enrollment. Mice were 6 to 8 weeks old and weighed between 18 and 24 grams at the beginning of the treatments. These animals were housed under conditions outlined in the guidelines approved by the Institutional Animal Care and Use Committee (IACUC) of WuXi AppTec following the guidance of the Association for Assessment and Accreditation of Laboratory Animal Care (AAALAC).
Parental MCF7 cells were obtained from the American Type Culture Collection (ATCC® HTB-22™). MCF7-Y537S (ESR1) cell line was MCF7 cells expressing the ER.Y537S variant that was generated by Sanofi Biology Discovery Group. Y537S mutation was introduced in ESR1 construct (GenBank NM_000125.3) by site directed mutagenesis (Toy W. et al., Cancer Discovery, 2017, 7, 277-287). The construct was transfected in MCF7 cells which were selected for their growth in absence of estradiol. MCF-Y537S is an ESR1 mutation that confers estrogen-independent activity to ERα (Estrogen Receptor alpha) and contributes to endocrine resistant disease (Robinson D. R. et al., Nat Genet., 2013, 45 (12), 1446-1451). The cells were grown in Eagle's Minimum Essential Medium (EMEM) supplemented with 10% fetal bovine serum (FBS), human Insulin, in 5% CO2 at 37° C. The cells were harvested in 0.25% Trypsin EDTA and washed by Phosphate Buffered Saline (PBS) and re-suspended in PBS with 75% Matrigel. The cells (20×10^6 cells/per mouse) were subcutaneously (SC) implanted into the right flank of female nude mice.
When the MCF7-Y537S tumors were established, the tumors were reserved as tumor stocks for fragment implantation. The tumors were serially propagated through fragment tissue transplantation subcutaneously. The fragment tumor tissues were subcutaneously implanted into the right flank of female nude mice. 28 mice were assigned in this experiment.
Alpelisib (commercially available, marketed under the tradename PIQRAY®) was formulated in 100% of HPMC (hydroxypropyl-methylcellulose)/TWEEN80 0.5/0.1% in water. Compound (1) was prepared in 5% Solutol HS15 (purchased from Sigma) at pH 3.0.
Dose volume for compound (1) and alpelisib for oral administration: 10 ml/kg by oral gavage.
Doses: compound (1) at 20 mg/kg and alpelisib at 25 mg/kg in the above volume.
The animals required for experiment (plus extra) were pooled and implanted with MCF7-Y537S tumor fragment tissues. […] Treatments of compound (1) and alpelisib were initiated on day 0. Compound (1) was orally administered at 20 mg/kg BID (8 hours apart) and alpelisib was orally administered at 25 mg/kg QD, for 22 days. Animal body weight was assessed daily.
The dosages are expressed in mg/kg and based on daily body weight per animal. Vehicle treated animals were used as controls. Mice were checked daily for adverse clinical reactions. Individual mice were weighed daily until the end of the experiment.

[2] = tested on: MCF7-Y537S human breast cancer cell line xenograft; format: in vivo; settings: experiment 2, compound (1) 10 mg/kg BID, alpelisib 25 mg/kg QD; for Tumor volume changes from baseline, Median: PO; for Median % of regressions on day 28 / ΔT/ΔC in % at day 28 / Regressions Complete / Regressions Partial: PO days 0 to 28; for Regressions Complete / Regressions Partial: animals/group; for Anti-tumor effect on tumor growth (in words) / Biological Interpretation: day 28

## O=C(O)c1ccc2c(c1)CCCC(c1ccc(Cl)cc1Cl)=C2c1ccc(O[C@H]2CCN(CCCF)C2)cc1 [Compound (1), 6-(2,4-dichlorophenyl)-5-[4-[(3S)-1-(3-fluoropropyl)pyrrolidin-3-yl]oxyphenyl]-8,9-dihydro-7H-benzo[7]annulene-2-carboxylic acid]
[1]; Day 4
  Tumor volume changes from baseline, Median: 43.0 mm^3
[1]; Day 8
  Tumor volume changes from baseline, Median: 121.0 mm^3
[1]; Day 11
  Tumor volume changes from baseline, Median: 214.0 mm^3
[1]; Day 15
  Tumor volume changes from baseline, Median: 360.0 mm^3
[1]; Day 18
  Tumor volume changes from baseline, Median: 392.0 mm^3
[1]; Day 22
  Tumor volume changes from baseline, Median: 501.0 mm^3
[1]
  Median % of regressions on day 22: 0%
  ΔT/ΔC in % at day 22: 47%
  Regressions Complete: 0/7
  Regressions Partial: 0/7
  Anti-tumor effect on tumor growth (in words): no statistically significant anti-tumor effect
  Biological Interpretation: Inactive
[1]; PO for 22 days, deaths/animals
  Unscheduled death (Day of death): 0/7
[2]; Day 3
  Tumor volume changes from baseline, Median: 9.0 mm^3
[2]; Day 7
  Tumor volume changes from baseline, Median: 36.0 mm^3
[2]; Day 10
  Tumor volume changes from baseline, Median: 48.0 mm^3
[2]; Day 14
  Tumor volume changes from baseline, Median: 62.5 mm^3
[2]; Day 17
  Tumor volume changes from baseline, Median: 92.0 mm^3
[2]; Day 21
  Tumor volume changes from baseline, Median: 167.5 mm^3
[2]; Day 24
  Tumor volume changes from baseline, Median: 189.5 mm^3
[2]; Day 28
  Tumor volume changes from baseline, Median: 166.5 mm^3
[2]
  Median % of regressions on day 28: 0%
  ΔT/ΔC in % at day 28: 37%
  Regressions Complete: 0/8
  Regressions Partial: 0/8
  Anti-tumor effect on tumor growth (in words): statistically significant anti-tumor effect
  Biological Interpretation: active
[2]; PO for 28 days, deaths/animals
  Unscheduled death (Day of death): 0/8

## Cc1nc(NC(=O)N2CCC[C@H]2C(N)=O)sc1-c1ccnc(C(C)(C)C(F)(F)F)c1 [Alpelisib]
[1]; Day 4
  Tumor volume changes from baseline, Median: 68.0 mm^3
[1]; Day 8
  Tumor volume changes from baseline, Median: 102.0 mm^3
[1]; Day 11
  Tumor volume changes from baseline, Median: 163.0 mm^3
[1]; Day 15
  Tumor volume changes from baseline, Median: 262.0 mm^3
[1]; Day 18
  Tumor volume changes from baseline, Median: 315.0 mm^3
[1]; Day 22
  Tumor volume changes from baseline, Median: 491.0 mm^3
[1]
  Median % of regressions on day 22: 0%
  ΔT/ΔC in % at day 22: 46%
  Regressions Complete: 0/7
  Regressions Partial: 0/7
  Anti-tumor effect on tumor growth (in words): did not induce statistically significant anti-tumor efficacy
  Biological Interpretation: Inactive
[2]; 28 days
  Body weight loss: no significant body weight loss
  Tolerability: well tolerated
[2]; Day 3
  Tumor volume changes from baseline, Median: 7.0 mm^3
[2]; Day 7
  Tumor volume changes from baseline, Median: −9.0 mm^3
[2]; Day 10
  Tumor volume changes from baseline, Median: −17.0 mm^3
[2]; Day 14
  Tumor volume changes from baseline, Median: 44.0 mm^3
[2]; Day 17
  Tumor volume changes from baseline, Median: 121.5 mm^3
[2]; Day 21
  Tumor volume changes from baseline, Median: 211.0 mm^3
[2]; Day 24
  Tumor volume changes from baseline, Median: 245.5 mm^3
[2]; Day 28
  Tumor volume changes from baseline, Median: 299.5 mm^3
[2]
  Median % of regressions on day 28: 0%
  ΔT/ΔC in % at day 28: 66%
  Regressions Complete: 0/8
  Regressions Partial: 0/8
  Anti-tumor effect on tumor growth (in words): statistically significant anti-tumor efficacy
  Biological Interpretation: inactive
